Data from ChEMBL document CHEMBL1201862, “PubChem BioAssay data set” (2004).
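Each compound was tested at five concentrations against cells in 96-well plates for 48 hours. GI50 = concentration required for 50% inhibition of growth.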 Calls of active or inactive are those of the source. No stated cut-off is given here; in the data, active = GI50 up to about 1.1 µM and inactive = higher.

Legend:
Assay in all cases: DTP human tumour cell line panel, 48 h
[1] = tested on: A498
[2] = tested on: K562
[3] = tested on: BT-549
[4] = tested on: DU-145
[5] = tested on: CAKI-1
[6] = tested on: NCI-H23
[7] = tested on: HOP-62
[8] = tested on: RPMI-8226
[9] = tested on: ACHN
[10] = tested on: CCRF-CEM
[11] = tested on: MDA-MB-231
[12] = tested on: OVCAR-5
[13] = tested on: OVCAR-3
[14] = tested on: EKVX

Compound	GI50 [1]	GI50 [2]	GI50 [3]	GI50 [4]	GI50 [5]	GI50 [6]	GI50 [7]	GI50 [8]	GI50 [9]	GI50 [10]	GI50 [11]	GI50 [12]	GI50 [13]	GI50 [14]
COC(=O)c1cc2c3c(cc(N(C)C)c2[nH]1)N(C(=O)c1cc2cc(OC)c(OC)c(OC)c2[nH]1)CC3CCl (stereo not drawn)	0.00443 µM (active)	0.00317 µM (active)	0.018 µM (active)	< 0.0025 µM (active)	< 0.0025 µM (active)	0.00381 µM (active)	0.00262 µM (active)	0.00432 µM (active)	< 0.0025 µM (active)	0.00403 µM (active)	0.00419 µM (active)	0.00776 µM (active)	0.00396 µM (active)	0.0146 µM (active)
N#CC(=S)Nc1ccc(F)cc1	32.7 µM (inactive)	23.9 µM (inactive)	32.6 µM (inactive)	86.7 µM (inactive)	63.8 µM (inactive)	53.7 µM (inactive)	> 100 µM (inactive)	8.22 µM (inactive)	60 µM (inactive)	22.4 µM (inactive)	> 100 µM (inactive)	83.9 µM (inactive)	56.4 µM (inactive)	72.3 µM (inactive)
CC(C)(C)OC(=O)NC(CSSCC(NC(=O)OC(C)(C)C)C(=O)O)C(=O)O (stereo not drawn)	> 100 µM (inactive)	> 100 µM (inactive)	> 100 µM (inactive)	> 100 µM (inactive)	> 100 µM (inactive)	> 100 µM (inactive)	> 100 µM (inactive)	> 100 µM (inactive)	> 100 µM (inactive)	> 100 µM (inactive)	> 100 µM (inactive)	> 100 µM (inactive)	> 100 µM (inactive)	> 100 µM (inactive)
CCOC(=O)/C=C(\C(=O)OCC)n1ccc(=O)n(Cc2cnnn2CCCCOC(C)=O)c1=O	21.1 µM (inactive)	2.37 µM (inactive)	16.4 µM (inactive)	18.6 µM (inactive)	2.38 µM (inactive)	13.2 µM (inactive)	19.7 µM (inactive)	6.68 µM (inactive)	1.83 µM (inactive)	1.99 µM (inactive)	15.2 µM (inactive)	12.4 µM (inactive)	5.3 µM (inactive)	11 µM (inactive)
CCN(CC)CCNC(=O)c1cc2cc(NC(=O)c3cc4cc(NC(=O)c5cc6cc(N)ccc6[nH]5)ccc4[nH]3)ccc2[nH]1	> 100 µM (inactive)	> 100 µM (inactive)	> 100 µM (inactive)	> 100 µM (inactive)	> 100 µM (inactive)	> 100 µM (inactive)	> 100 µM (inactive)	> 100 µM (inactive)	> 100 µM (inactive)	> 100 µM (inactive)	> 100 µM (inactive)	> 100 µM (inactive)	> 100 µM (inactive)	> 100 µM (inactive)
CCCCCCCCCCCCCCCCP(=O)([O-])OCC[N+](C)(C)C	14.5 µM (inactive)	19 µM (inactive)	9.53 µM (inactive)	14.7 µM (inactive)	12.1 µM (inactive)	20.2 µM (inactive)	15.2 µM (inactive)	15.3 µM (inactive)	16.5 µM (inactive)	8.47 µM (inactive)	20.5 µM (inactive)	8.55 µM (inactive)	17.1 µM (inactive)	20.1 µM (inactive)
O=C1O/C(=C\c2ccc(O)cc2)C(c2ccc(O)c(Cl)c2)=C1Br	16.4 µM (inactive)	2.25 µM (inactive)	6.35 µM (inactive)	12.9 µM (inactive)	15.4 µM (inactive)	16.1 µM (inactive)	14.2 µM (inactive)	10.6 µM (inactive)	13.2 µM (inactive)	5.94 µM (inactive)	21.8 µM (inactive)	18.2 µM (inactive)	7 µM (inactive)	14.1 µM (inactive)
